Assay results taken from PMC12757955, “A nonavalent BODIPY with a multivalent arrangement of α-mannosides enables lectins recognition in fluorescence-based assays” (RSC Chemical Biology, 2025).

Experiments:
ConA [1] = target: T1, ConA (Canavalia ensiformis, UniProt P02866)
T1 construct: purchased Sigma Aldrich L7647-100MG
Protocol: Accordingly, preliminary agglutination experiments were performed by following a previously reported protocol,[28] thus expecting aggregation of lectin with the mannosylated BODIPYs driven by the molecular recognition of the mannose residues on the fluorescent probes. Accordingly, Tris-BODIPY-OH was used as a negative control. The changes in the absorption (λ = 490 nm) of the solutions of the glycoBODIPYs treated with a fixed concentration of ConA (20 µM in HEPES 25 mM, pH 7.6, 1 mM CaCl2, 1 mM MnCl2) were monitored over time (0–30 min, Fig. 3A).
Data are normalized according to the maximum optical density value.
A solution of ConA (20 µM) in the buffer (HEPES 25 mM pH 7.6, 1 mM CaCl2, 1 mM MnCl2) was prepared. In a 96-well plate (Microplate, 96 wells, PS, F-BOTTOM (CHIMNEY WELL), clear, non-binding) were placed 100 µL of the 20 µM solution of each BODIPY, then 100 µL of the solution of ConA was added. The mixture was gently shaken for 10 minutes, then the optical density at λ = 490 nm was measured every minute for 30 minutes. The measurements were carried out in triplicate.

ConA [2] = target: T1, ConA; assay: Competitive fluorescence polarization assay (displacement of Man9-BODIPY from ConA); assay type: binding
Protocol: Titration experiments allowed us to define the concentration of ConA to be used in a competitive displacement assay, which was set to 2 µM.
The fluorescence polarization is expressed in millipolarization (mP) units (A).
(§1) All experiments were performed at room temperature (25 °C).

concanavalin A (ConA) = target: T2, concanavalin A (ConA) (Canavalia ensiformis, UniProt P02866); assay: Fluorescence polarization (FP) titration of BODIPY probes with ConA; assay type: binding; conditions: probe 0.5 µM, increasing ConA
T2 construct: purchased Sigma Aldrich L7647-100MG
Protocol: All experiments were conducted at 25 °C.
as §1

ConA [3] = target: T1, ConA; assay type: binding; conditions: BODIPY 500 nM, ConA 500 nM
Protocol: Accordingly, FLIM was used in this work to directly visualize the formation of the glycoBODIPY/ConA complexes. […] The color scale in the images corresponds to the dye lifetime measured by FLIM for each pixel in the image.
Fig. 4 FLIM images measured for: (left panels) the (free) BODIPY solutions 500 nM in HEPES 25 mM pH 7.6, 1 mM CaCl2, 1 mM MnCl2 and for (right panels) solutions of the BODIPYs (500 nM) combined with ConA (500 nM in HEPES 25 mM pH 7.6, 1 mM CaCl2, 1 mM MnCl2).
FLIM was performed at room temperature (20 °C) on a Nikon Ti AX-R NSPARC confocal microscope using a Nikon Plan Apo λD 100× oil immersion objective (NA = 1.45). The microscope is equipped with a two-channel PicoQuant FLIM compact module system. Images of 1024 × 1024 pixels were acquired using a 488 nm pulsed laser for excitation and recording photons of fluorescence emission at a wavelength of 620 ± 50 nm for 90 s at a frequency of 25 MHz through a PMA Hybrid single photon counting module and a MultiHarp 150 multichannel event timer. Lifetime histograms were calculated and analyzed using SymphoTime©. Samples were inserted into LabteK chambers, and the images were acquired at 10 µm from the coverslip to avoid interactions of the dye with the surface of the coverslip.

ConA [4] = target: T1, ConA; assay type: binding; conditions: FCS, probe 500 nM, ConA 50 nM
Protocol: 500 nM solution of each dye in the absence or presence of 50 nM ConA was placed in a glass-bottom ibidi 18-well µ-slides, precoated with albumin (Sigma Aldrich) to reduce dye adsorption to the surface. FCS experiments were performed with an Abberior Instruments microscope in the confocal mode using the Olympus UPlanSApo 60×/1.2 water immersion objective and steered through the Imspector software. Fluorescence was excited by a 561 nm pulsed excitation laser at an average power of around 10 µW, and detected by an avalanche photodiode through a 0.9 Airy-unit pinhole and a 580–630 nm emission filter (Semrock). Intensity fluctuations were acquired in 2 µs bins for 15–120 seconds at least 5 times per sample. The intensity traces were autocorrelated and further analysed with the open source FoCuS-scan software (https://github.com/dwaithe/FCS_scanning_correlator)[41] employing the 3D-diffusion model (fits in Fig. 8) with the aspect ratio of the optical point-spread-function and anomalous diffusion exponent fixed to 10 and 0.9, respectively.

## CO[C@H]1O[C@H](CO)[C@@H](O)[C@H](O)[C@@H]1O [α-O-methyl-D-mannopyranoside]
ConA [1]; 50 mM competitor added, optical density at 490 nm
  Deagglutination of glycoBODIPYs/ConA aggregates: fast deagglutination process

## OC[C@H]1OC(O)[C@@H](O)[C@@H](O)[C@@H]1O (stereo partly drawn) [D-mannose]
ConA [2]
  Competitive displacement of the probe (in words): competitively displaced the probe
  mP0: 113.9 ± 4.0
  mPmax: 432 ± 13

## CC1=C(C#CCOCC(CO)(CO)CO)C(C)=[N+]2C1=C(c1ccc(-n3cc(COCC(CO)(CO)CO)nn3)cc1)c1c(C)c(C#CCOCC(CO)(CO)CO)c(C)n1[B-]2(F)F [Tris-BODIPY-OH]
Concanavalin A (ConA)
  Binding to ConA in FP titration (in words): did not bind to ConA
ConA [1]; BODIPY 20 µM solution, ConA 20 µM solution, HEPES pH 7.6, 0–30 min
  Change of turbidity / absorption (λ = 490 nm) over time with ConA: No change in the absorption
ConA [3]
  Change of fluorescence lifetime histogram in the presence of ConA: the peak of the histogram is unchanged
ConA [4]
  Shift of the autocorrelation curve in the presence of ConA: no shift was observed
